We go through four compounds from ChEMBL document CHEMBL5257083, “Identification of a Noxo1 inhibitor by addition of a polyethylene glycol chain” (Bioorg Med Chem, 2023).

Series [1] is described as follows: Inhibition of 6His tagged NOXO1 (149 to 286 residues) (unknown origin) expressed in Escherichia coli BL21 (DE3)-CYBA (unknown origin) protein-protein interaction assessed as apparent dissociation constant at 200 uM by isothermal titration calorimetry. On the set-up: species or system Homo sapiens. Conditions: read-out: Kd(app).
The nature of series [2]: Cytotoxicity against human Keratinocyte assessed as cell viability at 1 uM incubated for 48 hrs by MTT assay (reference value: 100 + /-7 %). The format is toxicity, cell-based. The following applies: keratinocytes, read-out: Activity.
Series [3] relates to Keratinocyte. Briefly: Cytotoxicity against human Keratinocyte incubated for 48 hrs by MTT assay. Format: toxicity, cell-based.
A short description of series [4]: Cytoprotective activity in human Keratinocyte assessed as decrease in UV-radiation induced DNA damage by measuring CPD intensity preincubated for 24 hrs followed by UV exposure and measured after 24 hrs by immunohistological analysis (reference value: 0.003 a.u.). The format is functional. Conditions: time 48 hrs.
Series [5] can be described thus: Cytoprotective activity in human Keratinocyte assessed as fold decrease in UV-radiation induced DNA damage preincubated for 24 hrs followed by UV exposure and measured after 24 hrs by immunohistological analysis. Format: functional. Conditions: time 48 hrs.
In series [6] the test system is Keratinocyte. In words: Cytoprotective activity in human Keratinocyte assessed as effect on CPD intensity incubated for 24 hrs by immunohistological analysis. Format: functional, cell-based.
The target in series [7] is T1, NADPH oxidase organizer 1 (Homo sapiens) (UniProt Q8NFA2).
T1 sequence (whole entry): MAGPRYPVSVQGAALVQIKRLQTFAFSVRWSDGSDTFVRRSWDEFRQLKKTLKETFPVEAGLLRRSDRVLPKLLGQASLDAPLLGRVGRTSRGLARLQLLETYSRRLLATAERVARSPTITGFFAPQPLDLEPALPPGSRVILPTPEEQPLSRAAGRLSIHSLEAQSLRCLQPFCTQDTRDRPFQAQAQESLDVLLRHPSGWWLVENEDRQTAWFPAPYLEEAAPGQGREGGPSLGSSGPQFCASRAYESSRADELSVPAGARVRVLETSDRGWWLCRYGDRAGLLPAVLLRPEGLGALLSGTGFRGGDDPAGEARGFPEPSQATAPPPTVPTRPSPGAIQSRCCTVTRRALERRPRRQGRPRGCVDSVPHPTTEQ
Briefly: Binding affinity to 6His tagged NOXO1 (149 to 286 residues) (unknown origin) expressed in Escherichia coli BL21 (DE3) assessed as change in enthalpy at 800 uM by isothermal titration calorimetry.

For a further series, the species on record is Homo sapiens. In words: Inhibition of 6His tagged NOXO1 (149 to 286 residues) (unknown origin) expressed in Escherichia coli BL21 (DE3)-CYBA (unknown origin) protein-protein interaction by MALDI-TOF-MS analysis.
Series [8] in a line: Inhibition of 6His tagged NOXO1 (149 to 286 residues) (unknown origin) expressed in Escherichia coli BL21 (DE3)-CYBA (unknown origin) protein-protein interaction assessed as apparent dissociation constant at 800 uM by isothermal titration calorimetry. On the set-up: species or system Homo sapiens. The following applies: read-out: Kd(app).

pKd: −log10 of the molar value. Calls of active or inactive are those of the source. The rule behind the calls is not given here.

For `COCCOCCC(=O)N1CCC(CNc2ccccc2-c2cccc(C(N)=O)c2)CC1`, in [1], the negative logarithm of the Kd (pKd) was 4.36.

In the case of `NC(=O)c1cccc(-c2ccccc2NCC2CCN(C(=O)CCOCCOCCOCCOCCNC(=O)CCCC[C@H]3SC[C@H]4NC(=O)N[C@H]43)CC2)c1`, in series [2], the viability at 48 h, 1 µM was 101%. Besides, the Activity entry in the series with Keratinocyte [3] is “Non-Toxic”; in [4] it was 0.004 a.u. Also, in series [5], the “fold change (FC)” value was 175. Further, the outcome with Keratinocyte [6] was inactive. Further, the pKd in [1] was 4.41. Besides, the deltaH in [7] is 5.2 kcal/mol. For the same compound, the inhibition entry in the series listed under Homo sapiens was “Active”.

Regarding `COCCOCCC(=O)N(C)Cc1ccccc1`, the negative logarithm of the Kd (pKd) in series [1] was 5.64.

In the case of `NC(=O)c1cccc(-c2ccccc2NCC2CCNCC2)c1`, the viability at 48 h, 1 µM in series [2] is 106%. For the same compound, the Activity result in the series with Keratinocyte [3] is on record as “Non-Toxic”. Further, in [8], the negative logarithm of the Kd (pKd) is 5.39.
